14 compounds from PubChem BioAssay (NCI) can be followed below.

SMILES strings stand for the structures.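 All cell lines were grown in 96-well plates and treated with compound for 48 hours. TGI is the concentration that stops growth completely.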

Some test systems named below: COLO 205 colon; MCF7 breast; SNB-19 CNS; BT-549 breast; MDA-MB-435; CCRF-CEM leukemia; OVCAR-5 ovarian; SF-539 CNS; LOX IMVI melanoma.
Common to all, as to assay: NCI tumour cell line growth inhibition, 48 h

For the compound `C=CCc1cc(C(Cc2ccccc2)NC(C)C)cc(OCc2ccccc2)c1OCc1ccccc1` (stereo unspecified), the TGI with COLO 205 colon stood at 31.3 µM; in the test with MCF7 breast, 32 µM; in the test with SNB-19 CNS, 28.8 µM; in the test with BT-549 breast, 31.4 µM; in the test on MDA-MB-435, 29.2 µM; in the test on CCRF-CEM leukemia, 33.5 µM. Besides, the TGI in the test with OVCAR-5 ovarian came out at 33.2 µM; in the test on SF-539 CNS it was 29 µM; in the test with LOX IMVI melanoma, 31.7 µM.
Regarding `C[N+]1(CCC[N+]2(C)CC3C4C=CC(CC4)C3C2)CCOCC1` (stereo unspecified), the TGI with COLO 205 colon, in the test on MCF7 breast, in the test with SNB-19 CNS, in the test with BT-549 breast, in the test with MDA-MB-435 and with CCRF-CEM leukemia was greater than 100 µM throughout. Moreover, the TGI in the test on OVCAR-5 ovarian, in the test on SF-539 CNS and in the test with LOX IMVI melanoma was greater than 100 µM each time.
For `Nc1c2c(nc3ccccc13)-c1ccccc1NCCC2`, the TGI in the test with COLO 205 colon is 35.2 µM; with MCF7 breast, greater than 100 µM; with SNB-19 CNS, greater than 100 µM; in the test with BT-549 breast it was greater than 100 µM; with MDA-MB-435, 58.2 µM; in the test on CCRF-CEM leukemia, 81.3 µM. Also, the TGI is greater than 100 µM with OVCAR-5 ovarian, 43.9 µM in the test with SF-539 CNS and 35.5 µM with LOX IMVI melanoma.
For the compound `c1ccc2c(c1)ccn1ccc3c4ccccc4nc-3c21`, the TGI amounted to 1.13 µM in the test on COLO 205 colon; 1.11 µM in the test on MCF7 breast; 3.14 µM in the test on SNB-19 CNS; 3.82 µM with BT-549 breast; 1.65 µM with MDA-MB-435; 1.43 µM with CCRF-CEM leukemia. In addition, the TGI with OVCAR-5 ovarian was determined as 2.36 µM; with SF-539 CNS it was 1.48 µM; with LOX IMVI melanoma, 1.48 µM.
For the compound `CCOC(=O)C(O)(C(=O)OCC)c1cc(C(C)(C)C)c(O)c(C(C)(C)C)c1`, the TGI in the test with COLO 205 colon is 90.1 µM; in the test with MCF7 breast, greater than 100 µM; with SNB-19 CNS, 74.6 µM; in the test on BT-549 breast it was greater than 100 µM; with MDA-MB-435, greater than 100 µM; in the test on CCRF-CEM leukemia it was greater than 100 µM. Also, the results for the TGI in the test on OVCAR-5 ovarian, with SF-539 CNS and in the test with LOX IMVI melanoma were greater than 100 µM, 87.8 µM and greater than 100 µM, respectively.
Take `N#CCN(CC#N)C1CC=CCC1N(CC#N)CC#N` (stereo unspecified): the TGI with COLO 205 colon, in the test on MCF7 breast, in the test with SNB-19 CNS, in the test on BT-549 breast, in the test with MDA-MB-435 and in the test with CCRF-CEM leukemia was greater than 100 µM each time. Besides, the TGI in the test on OVCAR-5 ovarian, in the test on SF-539 CNS and in the test with LOX IMVI melanoma was greater than 100 µM throughout.
`O=[N+]([O-])/C(C(Cl)=C(Cl)Cl)=C(\N1CCCCC1)n1nnc2ccccc21`: the TGI in the test with COLO 205 colon was 34.4 µM; in the test on MCF7 breast it was greater than 69.4 µM; in the test on SNB-19 CNS, 40.3 µM; in the test with BT-549 breast it was 49.4 µM; in the test with MDA-MB-435, greater than 100 µM; in the test with CCRF-CEM leukemia it was 14.5 µM. Further, the figures for the TGI in the test on OVCAR-5 ovarian, in the test on SF-539 CNS and in the test with LOX IMVI melanoma were 36.9 µM, 33.6 µM and 31.7 µM, respectively.
As for `CC1(C)OC[C@@H](O)[C@H](Br)CO1`, the TGI with COLO 205 colon, in the test with MCF7 breast, in the test on SNB-19 CNS, in the test with BT-549 breast, in the test on MDA-MB-435 and in the test on CCRF-CEM leukemia was greater than 100 µM throughout. Besides, the TGI with OVCAR-5 ovarian, in the test on SF-539 CNS and in the test with LOX IMVI melanoma was greater than 100 µM each time.
On to `Cc1ccc2oc3c(c(Br)c(Br)n3C)c(=O)c2c1`, for which the TGI in the test on COLO 205 colon was greater than 100 µM; with MCF7 breast it was greater than 100 µM; in the test with SNB-19 CNS, 36 µM; in the test with BT-549 breast it was greater than 100 µM; with MDA-MB-435, greater than 100 µM; in the test with CCRF-CEM leukemia it was greater than 100 µM. The TGI with OVCAR-5 ovarian is 99.7 µM; in the test with SF-539 CNS it was 37.3 µM; in the test with LOX IMVI melanoma, greater than 100 µM.
Take `CCOC(=O)C(C)c1nc2ccc(C(F)(F)F)cc2[nH]c1=O` (stereo unspecified): the TGI in the test on COLO 205 colon, in the test on MCF7 breast, with SNB-19 CNS, in the test with BT-549 breast, with MDA-MB-435 and in the test with CCRF-CEM leukemia was greater than 100 µM throughout. The TGI in the test with OVCAR-5 ovarian, in the test with SF-539 CNS and in the test with LOX IMVI melanoma was greater than 100 µM in each case.
Consider `C=CCOc1ccccc1C1(O)c2ccccc2C2=NCCCN21` (stereo unspecified), for which the TGI in the test with COLO 205 colon was 78.9 µM; with MCF7 breast, greater than 100 µM; with SNB-19 CNS, 79.5 µM; with BT-549 breast, greater than 100 µM; in the test with MDA-MB-435, greater than 100 µM; in the test with CCRF-CEM leukemia, greater than 100 µM. Further, the figures for the TGI in the test on OVCAR-5 ovarian, with SF-539 CNS and with LOX IMVI melanoma were greater than 100 µM, 39.5 µM and greater than 100 µM, respectively.
As for `Cc1c(N2C(=O)/C(=C/c3ccc(N(CCC#N)CCC#N)cc3)N=C2c2ccccc2)c(=O)n(-c2ccccc2)n1C`, the TGI with COLO 205 colon, in the test with MCF7 breast, in the test with SNB-19 CNS, in the test on BT-549 breast, in the test on MDA-MB-435 and with CCRF-CEM leukemia was greater than 100 µM in each case. Besides, the TGI with OVCAR-5 ovarian, in the test on SF-539 CNS and with LOX IMVI melanoma was greater than 100 µM in each case.
Consider `CC1CN=C(c2cccc(-c3nc(-c4cccc(C5=NCC(C)N5)c4)nc(N(C)C)n3)c2)N1` (stereo unspecified), for which the TGI in the test with COLO 205 colon is 2.5 µM; with MCF7 breast it was 3.33 µM; with SNB-19 CNS it was 5.27 µM; with BT-549 breast it was 13.9 µM; in the test with MDA-MB-435 it was 2.61 µM; with CCRF-CEM leukemia, 3.45 µM. The TGI with OVCAR-5 ovarian is 10.2 µM; in the test with SF-539 CNS it was 1.66 µM; in the test on LOX IMVI melanoma it was 2.6 µM.
Turning to `COc1cc(NC=C2C(=O)OC(C)(C)OC2=O)c(OC)c(C)c1OC`, the TGI in the test on COLO 205 colon, with MCF7 breast, in the test on SNB-19 CNS, in the test with BT-549 breast, with MDA-MB-435 and in the test on CCRF-CEM leukemia was greater than 100 µM in each case. The TGI in the test on OVCAR-5 ovarian, in the test with SF-539 CNS and in the test on LOX IMVI melanoma was greater than 100 µM throughout.
